Patent US10662194B2, “Substituted 6-anilino-9-heterocyclylpurine derivatives for inhibition of plant stress” (UNIVERZITA PALACKEHO V OLOMOUCI, priority 2014, dated 2020)
≈ marks a conversion by molar mass, not a printed value. Marks after values point to notes of the source that are not given here.

Key:
[1] = tested on: wild-type Arabidopsis plants; assay: In vitro root growth of wild-type Arabidopsis plants; assay type: in vivo; conditions: 0.1 μM in MS medium, FIG. 6
Description: As shown in previous example presence of compound 12 in the growth medium has positive effect on the root growth of cytokinin-deficient Arabidopsis plants. This effect was further studied using wild-type Arabidopsis plants and compared with biologically and structurally relevant compounds, a cytokinin BAP and a CKX inhibitor INCYDE. […] Arabidopsis seedlings were grown in vitro on a standard MS medium containing 0.1 μM cytokinin BAP, the same concentration of compound 12 and the same concentration of CKX inhibitor INCYDE (2-chloro-6-(3-methoxyanilino)purine).

[2] = tested on: maize hybrides Amadeo and Zidane; assay: Seed coating, shoot biomass of silage maize (field experiment); assay type: in vivo
Description: Based on the results discussed in previous Example 25, field plot experiments were performed on two different locations (Kroměříž Czech Republic; Olomouc, Czech Republic) in years 2012 and 2013 to evaluate the effect of seed coating with compound 12 on biomass formation of maize. In
the season 2012 the seeds of maize (hybrid Amadeo; KWS, FAO 230) were coated with 10 and 50 μM water solution of compound 12 (8 L of solution per 1000 kg of seeds). The seeds were dried and then sown in the sowing rate 90.000 seeds per hectare in 4 replications per each variant in randomized positions (each replication was 10 square meter plot). The plants were harvested when reached the stage of 33-34% of dry mass. The plants were then analyzed for their moisture and standardized dry mass.
The experiment was repeated in the season 2013 with 50 μM concentration of compound 12 in the same experimental design with maize hybrid Zidane (KWS, FAO 250).

[3] = tested on: winter wheat variety Diadem; assay: Seed coating, tillering of winter wheat (field experiment); assay type: in vivo; conditions: for Number of medium tillers (% of control) / Number of productive tillers (% of control) / Number of weak tillers (% of control): Olomouc, 2012
Description: To evaluate the effect of seed coating with compound 12 on morphological yield forming traits of winter wheat field plot experiment was performed in year 2012 on locality Olomouc, Czech Republic. Seeds of winter weat bakery variety Diadem (Selgen) were coated with 10 and 50 μM concentration of compound 12 mixed into seed treatment agent Cruiser 350FS (Syngenta; 10 L of solution per 1000 kg of seeds), seeds coated with only Cruiser 350FS were used for control variant. The seeds were dried and then sown in the sowing rate 3.500.000 seeds per hectare in 4 replications per each variant in randomized positions (each replication was 10 square meter plot). The plants were analyzed for number of productive tillers, medium tillers and weak tillers.

[4] = Calcein AM viability/cytotoxicity assay, BJ; assay type: cell-based; conditions: human, BJ foreskin fibroblasts, FIG. 11, read-out: IC50, concentration reducing number of viable cells to 50%
Description: Absence of toxic effects against mammalian (especially human) cell lines in a wide concentration range is one of the requirements on compounds intended for use in agriculture and medicine. Because toxic compounds negatively influence metabolic processes in cells, many standard cytotoxicity assays are based on measurement of metabolisation rate of various artificial substrates. Resulting product is then quantified e.g. by means of spectrometry. The assays can be easily modified for use in 96-well plates. For evaluation of cytotoxic effect of compounds of this invention, a microtiter assay based on quantification of metabolisation of Calcein AM was used. The assay is widely used in drug screening programs and in chemosensitivity testing. In live cells, Calcein AM is enzymatically hydrolysed and accumulation of resulting calcein is manifested by green fluorescence. The cytotoxicity of the studied compounds was determined with human fibroblast lines MRC-5 (lung fibroblasts) and BJ (foreskin fibroblasts). […] The fluorescence of the live cells was measured at 485 nm/538 nm (excitation/emission) with a Fluoroskan Ascent microplate reader (Labsystems). […]

human U2OS cells = assay: Induction of DNA breakage, γ-H2AX immunofluorescence; assay type: cell-based; conditions: 100 μM, 24 h, FIG. 13
Description: (§1) Maintenance of genome integrity is essential for homeostasis and survival as impaired DNA damage response may predispose to grave pathologies such as neurodegenerative and immunodeficiency syndromes, cancer and premature aging (Mistrik et al., 2009). The potential effect of compound 12 on stimulation of DNA breakage was thus further estimated through analysis of phosphorylated histone H2AX (gamma-H2AX) quantified by optimized automated single-cell image analysis (Mistrik et al., 2009). The compound 12 was tested in concentration of 100 μM, the highest concentration accessible due to the compound solubility. Induction of DNA breakage was tested using human U2OS cells. The U2OS cells were cultivated at standard cultivation condition (37° C., 5% CO2). As a positive control, cells were irradiated by roentgen radiation (Baltobloc) (0.5 Gy-2 Gy), one hour later fixed and stained for γ-H2AX, a well established marker of the DNA damage. Parallel samples were treated by compound 12 for 24 hours, fixed and also stained for γ-H2AX. Microscopy analysis followed by computer based signal quantification was performed as described previously (Mistrik et al., 2009).

[5] = Compound solubility limit in the test medium; assay type: physicochemical; conditions: read-out: highest concentration accessible due to the compound solubility
Description: as §1

COc1cccc(Nc2nc(Cl)nc3c2ncn3C2CCCCO2)c1 (stereo not drawn) [compound 12, 2-chloro-6-(3-methoxyanilino)-9-(tetrahydropyran-2-yl)purine]
root growth [1]: positive effect on the root length and lateral branching | Absolute dry matter yield ([2]; 10 μM, Kroměříž, 2012): 23.06 t/ha | Absolute green matter yield ([2]; 10 μM, Kroměříž, 2012): 52.19 t/ha | Height before harvest ([2]; 10 μM, Kroměříž, 2012): 276.6 cm | Height before harvest (% of control) ([2]; 10 μM, Kroměříž, 2012): 101.0 % of control | Relative dry matter yield (% of control) ([2]; 10 μM, Kroměříž, 2012): 110.85 % of control | Absolute dry matter yield ([2]; 10 μM, Olomouc, 2012): 17.01 t/ha | Absolute green matter yield ([2]; 10 μM, Olomouc, 2012): 43.20 t/ha | Height before harvest ([2]; 10 μM, Olomouc, 2012): 237.3 cm | Height before harvest (% of control) ([2]; 10 μM, Olomouc, 2012): 98.3 % of control | Relative dry matter yield (% of control) ([2]; 10 μM, Olomouc, 2012): 110.94 % of control | average silage yield counted from all trials ([2]; 10 μM, counted from 2 trials): 110.9% | Absolute dry matter yield ([2]; 50 μM, Kroměříž, 2012): 22.18 t/ha | Absolute green matter yield ([2]; 50 μM, Kroměříž, 2012): 49.52 t/ha | Height before harvest ([2]; 50 μM, Kroměříž, 2012): 273.5 cm | Height before harvest (% of control) ([2]; 50 μM, Kroměříž, 2012): 99.8 % of control | Relative dry matter yield (% of control) ([2]; 50 μM, Kroměříž, 2012): 106.63 % of control | Absolute dry matter yield ([2]; 50 μM, Kroměříž, 2013): 22.33 t/ha | Absolute green matter yield ([2]; 50 μM, Kroměříž, 2013): 66.47 t/ha | Relative dry matter yield (% of control) ([2]; 50 μM, Kroměříž, 2013): 107.82* % of control | Absolute dry matter yield ([2]; 50 μM, Olomouc, 2012): 17.80 t/ha | Absolute green matter yield ([2]; 50 μM, Olomouc, 2012): 44.31 t/ha | Height before harvest ([2]; 50 μM, Olomouc, 2012): 235.8 cm | Height before harvest (% of control) ([2]; 50 μM, Olomouc, 2012): 97.7 % of control | Relative dry matter yield (% of control) ([2]; 50 μM, Olomouc, 2012): 116.06 % of control | Absolute dry matter yield ([2]; 50 μM, Olomouc, 2013): 19.23 t/ha | Absolute green matter yield ([2]; 50 μM, Olomouc, 2013): 68.78 t/ha | Height before harvest ([2]; 50 μM, Olomouc, 2013): 246.4 cm | Height before harvest (% of control) ([2]; 50 μM, Olomouc, 2013): 100.8 % of control | Relative dry matter yield (% of control) ([2]; 50 μM, Olomouc, 2013): 101.33 % of control | average silage yield counted from all trials ([2]; 50 μM, counted from 3 trials): 105.3% | effect on the plant height ([2]; seed treatment, all field plot experiments): without any effect on the plant height | Number of medium tillers (% of control) ([3]; 10 μM): 75.0* % of control | Number of productive tillers (% of control) ([3]; 10 μM): 106.5 % of control | Number of weak tillers (% of control) ([3]; 10 μM): 102.2 % of control | Number of medium tillers (% of control) ([3]; 50 μM): 78.1* % of control | Number of productive tillers (% of control) ([3]; 50 μM): 124.2** % of control | Number of weak tillers (% of control) ([3]; 50 μM): 80.4 % of control | number of productive tillers compared to untreated control ([3]; 10 and 50 μM): 106-124% | IC50 at 72 h [4]: > 100 µM | DNA damage (γ-H2AX) (human U2OS cells): no effect on DNA damage | solubility [5]: 100 µM (≈ 36 µg/mL)
